For one experiment, the system named is Caenorhabditis elegans. The experiment in a line: Nematicidal activity against Caenorhabditis elegans assessed as mortality at 100 ug/ml after 24 hr by microscopic analysis. It counts as functional.
Another experiment relates to Pichia kudriavzevii. The experiment can be described thus: Antimicrobial activity against Pichia kudriavzevii at 100 ug/ml after 72 hr. It counts as functional.
For the next experiment, the system named is Candida parapsilosis. The experiment in a line: Antimicrobial activity against Candida parapsilosis at 100 ug/ml after 72 hr. Format: functional.
Experiment [1] concerns Staphylococcus epidermidis. The experiment can be described thus: Antimicrobial activity against Staphylococcus epidermidis at 100 ug/ml after 72 hr. It counts as functional, organism-based.
For a further experiment, the system named is Staphylococcus aureus. The experiment can be described thus: Antimicrobial activity against Staphylococcus aureus at 100 ug/ml after 72 hr. Format: functional, organism-based.
The test system of a further experiment is Escherichia coli. The experiment can be described thus: Antimicrobial activity against Escherichia coli at 100 ug/ml after 72 hr. It counts as functional, organism-based.
A further experiment has as its system Fusarium oxysporum. The experiment in a line: Antimicrobial activity against Fusarium oxysporum at 100 ug/ml after 72 hr. Format: functional, organism-based.
The subject of a further experiment is Aspergillus parasiticus. The experiment can be described thus: Antimicrobial activity against Aspergillus parasiticus at 100 ug/ml after 72 hr. It counts as functional, organism-based.
A further experiment has as its system Aspergillus flavus. The experiment can be described thus: Antimicrobial activity against Aspergillus flavus at 100 ug/ml after 72 hr. It counts as functional, organism-based.
Another experiment relates to Candida albicans. The experiment in a line: Antimicrobial activity against Candida albicans at 100 ug/ml after 72 hr. It counts as functional.
In the next experiment the test system is Manduca sexta. The experiment in a line: Antifeedant activity against Manduca sexta at 100 ug/ml after 6 days. It counts as functional.
In a further experiment the test system is Heliothis virescens. The experiment can be described thus: Antifeedant activity against Heliothis virescens (tobacco budworm) at 100 ug/ml after 6 days. It counts as functional.
For a further experiment, the system named is Helicoverpa zea. The experiment can be described thus: Antifeedant activity against Helicoverpa zea (corn earworm) at 100 ug/ml after 6 days. Format: functional.
Experiment [2] has as its system Aedes aegypti. The experiment in a line: Mosquitocidal activity against fourth-instar larvae of Aedes aegypti assessed as mortality at 100 ug/ml after 24 hr. Format: functional.
The subject of experiment [3] is Aedes aegypti. The experiment can be described thus: Mosquitocidal activity against fourth-instar larvae of Aedes aegypti assessed as mortality at 200 ug/ml after 24 hr. It counts as functional.
Experiment [4] concerns Aedes aegypti. The experiment in a line: Mosquitocidal activity against fourth-instar larvae of Aedes aegypti assessed as mortality after 24 hr. Format: functional, organism-based.
In another experiment the test system is Panagrellus redivivus. The experiment can be described thus: Nematicidal activity against Panagrellus redivivus assessed as mortality at 100 ug/ml after 24 hr by microscopic analysis. It counts as functional.

Activity calls are given as the source filed them. No cut-off for these calls is given here.

Regarding `C/C=C/c1cc(OC)c(OC)cc1OC` [TRANS-ASARONE], the mortality at 100 µg/mL in the experiment with Caenorhabditis elegans was 100%; in the experiment with Aedes aegypti [2], 43%; in the experiment on Panagrellus redivivus it was 100%. Further, the zone of inhibition at 100 µg/mL in the experiment on Pichia kudriavzevii (read-out: IZ) is 7 mm; in the experiment on Candida parapsilosis (Lodderomyces parapsilosis, read-out: IZ) it was 6 mm; in the experiment with Candida albicans (read-out: IZ), 6 mm. For the same molecule, the outcome (in [1]; in the experiment on Staphylococcus aureus; in the experiment with Escherichia coli; in the experiment with Fusarium oxysporum; in the experiment with Aspergillus parasiticus; with Aspergillus flavus) was inactive. The Activity in the experiment with Manduca sexta stood at 79%; in the experiment on Heliothis virescens, 96%; with Helicoverpa zea, 97%. Further, the mortality at 200 µg/mL in the experiment on Aedes aegypti [3] turned out to be 100%. Besides, the mortality entry in the experiment on Aedes aegypti [4] is “Active”.
For `COc1cc(OC)c(OC)cc1C=O`, the mortality result in the experiment with Caenorhabditis elegans, in the experiment on Aedes aegypti [4] and with Panagrellus redivivus was “inactive” in each case. Further, the “inhibition zone (IZ)” value in the experiment with Pichia kudriavzevii, with Candida parapsilosis and in the experiment with Candida albicans was “inactive” each time. Besides, the outcome (in experiment [1]; in the experiment on Staphylococcus aureus; in the experiment with Escherichia coli; with Fusarium oxysporum; in the experiment on Aspergillus parasiticus; with Aspergillus flavus) was inactive. Moreover, the result in the experiment on Manduca sexta, in the experiment on Heliothis virescens and with Helicoverpa zea was inactive.
Take `CC(C)=CCC/C(C)=C/CO`: the mortality entry in the experiment with Caenorhabditis elegans, in the experiment with Aedes aegypti [4] and with Panagrellus redivivus was “inactive” throughout. The “inhibition zone (IZ)” value in the experiment with Pichia kudriavzevii, with Candida parapsilosis and with Candida albicans was “inactive” throughout. Further, the outcome (in [1]; in the experiment with Staphylococcus aureus; with Escherichia coli; in the experiment with Fusarium oxysporum; in the experiment with Aspergillus parasiticus; in the experiment on Aspergillus flavus) was inactive. The outcome in the experiment with Manduca sexta, in the experiment on Heliothis virescens and in the experiment with Helicoverpa zea was inactive.
On to `CCCCCCCC/C=C\CCCCCCCC(=O)O`, for which the mortality result with Caenorhabditis elegans, in the experiment with Aedes aegypti [4] and with Panagrellus redivivus was “inactive” each time. For the same molecule, the “inhibition zone (IZ)” value in the experiment on Pichia kudriavzevii, with Candida parapsilosis and in the experiment with Candida albicans was “inactive” each time. Further, the outcome (in experiment [1]; with Staphylococcus aureus; in the experiment with Escherichia coli; in the experiment with Fusarium oxysporum; in the experiment on Aspergillus parasiticus; in the experiment with Aspergillus flavus) was inactive.

The values above are taken from ChEMBL document CHEMBL3045214, “Pest-managing efficacy of trans-asarone isolated from Daucus carota L. seeds” (2002).
